From patent publication US11021488B2, “Hetero-substituted cyclic lactone analogues and uses thereof” (BioVentures, LLC, priority 2015, dated 2021)

Legend:
MV4-11 cells = assay: Cytotoxic activity of SLs against MV4-11 cells (flow cytometry, YO-PRO-1 / 7-AAD); type: cell-based; conditions: MV4-11 AML cell line, cell viability at 36 hours, triplicate
Method: Following this promising data, additional SLs were studied. This included glaucolide A (FIG. 5A), glaucolide E (FIG. 5B) and calaxin (FIG. 4A). Further, an additional compound Bahia I (FIG. 11) was synthesized (described below) and evaluated. The cytotoxicity of these compounds was determined using the AML cell line, MV4-11. MV4-11 cells were treated with the compounds at varying concentrations in triplicate. Cells were then stained with YO-PRO-1 and 7-aminoactinomycin D (7-AAD). YO-PRO-1 stains apoptotic cells and 7-ADD detects cell permeability. At 36 hours cell viability was measured via flow cytometry.

Solubility in water = type: physicochemical
MOLM-13_BLIV cells = assay: In vivo efficacy in NSG mice injected with MOLM-13_BLIV leukemia cells (luciferin imaging); conditions: 2.5 mg/kg in 20% DMSO i.p. every other day, imaged Day 23 and Day 31, vs vehicle
Method: To evaluate the efficacy of bahia II (BAH) in vivo, 6-8 week old NSG mice were injected i.v. via tail vein with 2.5×10^5 MOLM-13_BLIV cells. Two weeks after injection mice were injected with 3 mg of luciferin to visualize the leukemia cells using the IVIS Spectrum Imager. This was denoted time 0. Mice were randomized into 2 groups: (1) Vehicle (DMSO 20%) and (2) bahia II (BAH) (2.5 mg/kg in 20% DMSO). Mice were treated with vehicle or BAH every other day. After 3 doses, administered by i.p. injection, mice were imaged to evaluate tumor progression (Day 23). One week after the first 3 doses, the mice were treated and evaluated again in the same manner (Day 31).

[1] = system: normal peripheral blood mononuclear cells (PBMNCs); assay: Toxicity against normal peripheral blood mononuclear cells compared with leukemic cells; type: cell-based; conditions: PBMNCs compared with leukemic cells (FIG. 14)
Text: The cytotoxicity of Bahia II against leukemic cells was compared with its activity against normal peripheral blood mononuclear cells (PBMNCs) (FIG. 14).

AML primary samples = assay: Activity of SLs against AML primary samples

Compound	LD50 (MV4-11 cells)	Average LD50 (AML primary samples)	further results
C=C1C(=O)OC2C1C(OC(=O)/C(=C/CO)CO)CC1(CO1)C1CC=C(C)C21 (centres unmarked) [Bahia II]	1.21 µM	4.64 µM	solubility in water (Solubility in water; mass concentration): 1.75 ± 0.06 mg/mL; solubility in water (Solubility in water; molar): 465 µM; radiance emitted from tumor cells (MOLM-13_BLIV cells): significant reduction in radiance; toxicity against normal cells versus leukemia cells [1]: much lower toxicity against normal cells
C=C(C)C(=O)O[C@@H]1C[C@@]2(C)OC(=CC2=O)/C(C)=C\[C@H]2OC(=O)C(=C)[C@@H]21 [Calaxin]	0.0544 µM		
C=C1C(=O)O[C@@H]2[C@H]3C(C)=CC(=O)C3=C(C)CC[C@@H]12 [DHL, Dehydroleucodine, reference compound]	3.19 µM	7.06 µM	
C=C1C(=O)O[C@@H]2/C=C(\C)CC/C=C(\C)C[C@@H](OC(=O)/C(=C/CO)CO)[C@@H]12 [Eupatoriopicrin]	1.09 µM	5.65 µM	
Bahia I	2.80 µM		
Glaucolide A	1.82 µM		
Glaucolide E	1.12 µM		
